Data taken from patent US5863901A, “Use of bradykinin antagonists for the production of pharmaceuticals for the treatment of chronic fibrogenetic liver disorders and acute liver disorders” (Hoechst Aktiengesellschaft, priority 1996, dated 1999).

System: rats with carbon tetrachloride-induced hepatic fibrosis
Assay: Saluresis and diuresis test: urine and electrolyte excretion in rats with carbon tetrachloride-induced hepatic fibrosis
Format: in vivo, Wistar rats
Details: for Chloride excretion / Potassium excretion / Sodium excretion / Urine volume: 0.3 mg/kg s.c. at 0 and 6 h, mean value, n = 10, CCl4 fibrosis rats
Description: Wistar rats were used (breeder Hoechst AG, Kastengrund) with an initial body weight of 120-150 g.
Hepatic fibrosis was induced as described by Bickel et al., J. Hepatol., 13 (Suppl. 3) (1991) 26-33. The animals received carbon tetrachloride (CCl4) twice-weekly in a dose of 1 ml/kg orally for at least 6 weeks. The fibrosis of the liver was verified by means of the collagen content of the liver and liver-relevant serum parameters (bilirubin, ALAT, bile acids).
In the course of the fibrogenesis, the animals were kept under standard conditions as follows: day/night rhythm (light phase from 6.30 to 18.30), room temperature 22±2° C. and relative atmospheric humidity 60±10%. The animals received standardized rat feed (Altromin® 1321) and water ad libitum.
At the time of the diuresis test, the animals had reached weights of between 200 and 320 g. Food had already been withdrawn from the animals 16 h before the test and withheld during the entire test. The animals were additionally permitted free access to water up to the actual start of the test. For the duration of the diuresis test, the animals were kept in special diuresis cages. Controlled diuresis was induced with an oral dose of 20 ml of water per kg of body weight at time 0 h. The excretion of electrolytes and urine volumes were determined separately for each animal in the collection periods from […] and 6-24 h. Five days later, the test was carried out again on the same animals with administration of bradykinin antagonists. Animals received 0.3 mg/kg each of HOE 140 s.c. at time 0 and 6 h, dissolved in 5 ml of saline solution per kg of body weight.
Sodium and potassium were determined by flame photometry (Eppendorf flame photometer, Hamburg). Chloride was measured argentometrically by means of potentiometric end-point determination (Eppendorf chloride meter, Hamburg). The analytical results were used to calculate the urine excretion (ml/kg of body weight) and electrolyte excretion (mmol/kg of body weight).
The results are indicated as arithmetic means and standard deviation (SD). Statistical checking was carried out by the T test or, in the case of deviation from the normal distribution, by the nonparametric Mann-Whitney test.

For `NC(N)=NCCC[C@@H](N)C(=O)N[C@@H](CCCN=C(N)N)C(=O)N1CCC[C@H]1C(=O)N1C[C@H](O)C[C@H]1C(=O)NCC(=O)N[C@@H](Cc1cccs1)C(=O)N[C@@H](CO)C(=O)N1Cc2ccccc2C[C@@H]1C(=O)N1[C@H](C(=O)N[C@@H](CCCN=C(N)N)C(=O)O)C[C@@H]2CCCC[C@@H]21` [HOE 140, H-D-Arg-Arg-Pro-Hyp-Gly-Thi-Ser-D-Tic-Oic-Arg-OH], the Chloride excretion (collection period 1-5 h) was 0.35 mmol/kg, the Potassium excretion (collection period 1-5 h) was 0.51 mmol/kg and the Sodium excretion (collection period 1-5 h) was 0.48 mmol/kg. It also gave a Urine volume (collection period 1-5 h) of 26.59 mL/kg, a Chloride excretion (collection period 6-24 h) of 3.27 mmol/kg and a Potassium excretion (collection period 6-24 h) of 2.10 mmol/kg. For the same compound, the Sodium excretion (collection period 6-24 h) was 4.10 mmol/kg, the Urine volume (collection period 6-24 h) was 31.03 mL/kg and the “Natriuresis / sodium excretion (result in words)” value (rats with carbon tetrachloride-induced hepatic fibrosis, versus control run in the same animals) was “marked, statistically significant natriuresis”.
